These are literature values, as cited in patent publication US12527811B2, “Defibrotide for the prevention and treatment of cytokine release syndrome and neurotoxicity associated with immunodepletion” (priority 2018, dated 2026).

Where two headings read alike, the source gives them in different places.

One data set concerns the target T1, IL-6R (Homo sapiens, UniProt P08887).
T1 sequence (P08887 20-468): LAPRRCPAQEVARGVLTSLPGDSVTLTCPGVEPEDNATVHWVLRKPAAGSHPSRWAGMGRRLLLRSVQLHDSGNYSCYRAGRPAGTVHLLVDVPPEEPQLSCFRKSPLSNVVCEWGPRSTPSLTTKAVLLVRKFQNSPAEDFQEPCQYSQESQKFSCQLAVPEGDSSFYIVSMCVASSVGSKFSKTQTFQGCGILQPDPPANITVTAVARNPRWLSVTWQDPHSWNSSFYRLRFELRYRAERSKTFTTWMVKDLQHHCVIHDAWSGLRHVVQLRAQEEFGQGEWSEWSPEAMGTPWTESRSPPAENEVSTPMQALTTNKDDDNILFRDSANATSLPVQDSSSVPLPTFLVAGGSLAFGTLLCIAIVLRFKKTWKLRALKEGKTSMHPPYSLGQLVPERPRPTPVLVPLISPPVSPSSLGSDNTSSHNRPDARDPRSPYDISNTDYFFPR
Conditions: read-out: affinity (Kd) for IL-6R; cited from earlier work.

The conditions of data set [1]: ZUMA-1, one hundred and one adult patients with refractory aggressive B-cell NHL; cited from earlier work.
A further data set concerns the target IL-6 (Homo sapiens, UniProt P05231). Conditions: cited from earlier work.
For data set [2] the following is noted: in vivo; cited from earlier work.
The conditions of data set [3]: JULIET, ninety-three adult patients with relapsed or refractory DLBLC; cited from earlier work.

IL-6, sequence (P05231 30-212): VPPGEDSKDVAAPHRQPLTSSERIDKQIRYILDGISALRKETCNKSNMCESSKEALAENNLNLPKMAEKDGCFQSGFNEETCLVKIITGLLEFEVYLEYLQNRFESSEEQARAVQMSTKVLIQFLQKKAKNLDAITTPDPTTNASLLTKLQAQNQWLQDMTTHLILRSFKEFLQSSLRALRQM

With IL-6: cytokine that binds IL-6R, the Kd – broadly, a measure of binding affinity in units of concentration – with IL-6R is around 1 nM. Consider Axicabtagene ciloleucel [Axi-cel], for which, in data set [1], the “rate of grade>3 CRES” value is 28% and the “rate of grade>3 CRS” value is listed as 13%. Consider tocilizumab [reference compound], for which the Kd with IL-6R is 2.54 nM. Take siltuximab: the Kd with IL-6 was around 0.001 nM. Also, the “effect on CRS symptoms” value in data set [2] is listed as “rapid reversal of CRS symptoms in most patients”. In the case of tisagenlecleucel, in data set [3], the “rate of grade>3 CRES” value was 12% and the “rate of grade>3 CRS” value is on record as 22%.
